pIC50: −log10 of the molar value. No end group written: not given here.
What was measured:
Format in all cases: cell-based
[1] = test system: T1 cells; test: Fibroblast proliferation assay (MTT); settings: for Cell Proliferation Activity (% of control), T1: concentration not given, 5 days; for Fibroblast Proliferation, % of Control: 5000 T1 cells/well, 7 days
Method: To determine if Saposin B polypeptides had anti-angiogenic activity, a series of overlapping polypeptides were synthesized and tested in the KS Y-1 cell proliferation assay. The overlapping polypeptides are SEQ ID NOS:13 though 42. Cell Proliferation assays in either KS cells or fibroblast. Cells were plated in 48 well plates at equal numbers in appropriate culture medium. Cells were treated with the test compounds at various concentrations on day one, and on day 3. […] KS cells were used to represent the activated endothelial cells, while fibroblast cells represent the control cells. The results are remarkable for the lack of toxicity to the fibroblast relative to the activated endothelial cells/KS cells.

[2] = test system: KS Y-1 cells; test: KS Y-1 cell proliferation assay (MTT); settings: for Cell Proliferation Activity (% of control), KSY-1: concentration not printed; for Cell Proliferation Activity (% of control), KSY-1 / KS Cell Proliferation, % of Control: 5 days, MTT; for KS Cell Proliferation, % of Control: 7,500 KS Y-1 cells/well
Method: To determine if Saposin B polypeptides had anti-angiogenic activity, a series of overlapping polypeptides were synthesized and tested in the KS Y-1 cell proliferation assay. The overlapping polypeptides are SEQ ID NOS:13 though 42. Cell Proliferation assays in either KS cells or fibroblast. Cells were plated in 48 well plates at equal numbers in appropriate culture medium. Cells were treated with the test compounds at various concentrations on day one, and on day 3. MTT was done on day 5. KS cells were used to represent the activated endothelial cells, while fibroblast cells represent the control cells. The results are remarkable for the lack of toxicity to the fibroblast relative to the activated endothelial cells/KS cells.

[3] = test system: endothelial cells (HUVEC); test: Growth inhibition of endothelial cells; settings: FIG. 1, 1D, 1E
Method: FIG. 1D: Activity of n-terminus decapeptide (DVCQDCIQMV; SEQ ID NO 21).
FIG. 1E: Activity of N-terminus pentapeptide (DVCQC; SEQ ID NO: 28).
By SDS-PAGE, the bacterial product was smaller than the eukaryotic protein. Because prokaryotically expressed proteins are not glycosylated, the difference in molecular weights probably represents the presence of carbohydrate in the eukaryotic protein. Recombinant proteins were then tested in KS, endothelial and control cell lines. Activity was found only in KS cell lines and endothelial cells.

[4] = first of two KSY-1 value columns
[5] = second of two KSY-1 value columns

| Substance | Cell Proliferation Activity (% of control), T1 [1] | Cell Proliferation Activity (% of control), T1 ([1]; first of two T1 value columns) | Cell Proliferation Activity (% of control), KSY-1 [2, 4] | Cell Proliferation Activity (% of control), KSY-1 [2, 5] | KS Cell Proliferation, % of Control ([2]; 1 μg/mL) | KS Cell Proliferation, % of Control ([2]; 5 μg/mL) | KS Cell Proliferation, % of Control ([2]; 10 μg/ml) | KS Cell Proliferation, % of Control ([2]; 50 μg/mL) | growth inhibition of endothelial cells [3] | Fibroblast Proliferation, % of Control ([1]; 1 μg/mL) | Fibroblast Proliferation, % of Control ([1]; 10 μg/mL) | Fibroblast Proliferation, % of Control ([1]; 50 μg/mL) | pIC50 [2] |
| --- | --- | --- | --- | --- | --- | --- | --- | --- | --- | --- | --- | --- | --- |
| CQDCIQMV [SEQ ID NO:30] | 84 % of control | 92 % of control | 77 % of control | 35 % of control | – | – | – | – | – | – | – | – | – |
| DCIQMV [SEQ ID NO:23] | – | – | 68 % of control | 51 % of control | 88.7 % of Control | 83.5 % of Control | 68.7 % of Control | 51.3 % of Control | – | – | – | – | – |
| DVCQDC [SEQ ID NO:27] | 75 % of control | 88 % of control | 60 % of control | 22 % of control | – | – | – | – | – | – | – | – | – |
| DVCQDCI [SEQ ID NO:26] | 81 % of control | 96 % of control | 72 % of control | 40 % of control | – | – | – | – | – | – | – | – | – |
| DVCQDCIQ [SEQ ID NO:25] | 89 % of control | 98 % of control | 72 % of control | 39 % of control | – | – | – | – | – | – | – | – | – |
| DVCQDCIQM [SEQ ID NO:24] | 84 % of control | 96 % of control | 68 % of control | 46 % of control | – | – | – | – | – | – | – | – | – |
| DVCQDCIQMV [SEQ ID NO:21] | – | – | 29 % of control | – | 88.7 % of Control | 68.7 % of Control | 26.1 % of Control | 7.0 % of Control | Only endothelial cells show dose dependent growth inhibition | 100.0 % of Control | 91.3 % of Control | 87.0 % of Control | – |
| GDVCQ [SEQ ID NO:22] | – | – | 59 % of control | 28 % of control | 158.3 % of Control | 77.4 % of Control | 59.1 % of Control | 37.4 % of Control | – | 95.7 % of Control | 95.7 % of Control | 87.0 % of Control | – |
| GDVCQDSIQMV [SEQ ID NO:33, GDVCQDSIQMV] | – | – | – | – | – | – | – | – | – | – | – | – | 5.11 |
| GDVSQDCIQMV [SEQ ID NO:32, GDVSQDCIQMV] | – | – | – | – | – | – | – | – | – | – | – | – | 4.74 |
| GDVSQDSIQMV [SEQ ID NO:20] | – | – | 93 % of control | 84 % of control | 100.0 % of Control | 96.4 % of Control | 92.9 % of Control | 82.1 % of Control | – | 91.3 % of Control | 95.7 % of Control | 95.7 % of Control | – |

Reference: patent US6500431B1, “Inhibitors of angiogenesis and tumor growth” (University of Southern California, priority 1998, dated 2002)
